# US20250034135A1, “ANTI-APOPTOTIC PROTEIN BCL-2 INHIBITOR, PHARMACEUTICAL COMPOSITION AND USES THEREOF” (HANGZHOU HEALZEN THERAPEUTICS CO., LTD., priority 2021, published 2025)
# Molecular target: BCL2 (Homo sapiens (Human), UniProt P10415)
# Assay: Molecular level activity test of anti-apoptotic protein BCL2 (HTRF, binding to Bim peptide)
# Conditions: HTRF, binding of BCL2 to Bim peptide; read-out: BCL2 nM (inhibitory activity, IC50)
# Method in brief: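 Disruption of the BCL2/Bim peptide interaction is detected by homogeneous time-resolved fluorescence, using anti-His and streptavidin-XL665 reagents against His-tagged protein and biotin-tagged peptide. Compound exposure lasts 1 h before reagent addition; plates then sit 4 h at room temperature.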
# Chain of BCL2 (P10415 whole entry): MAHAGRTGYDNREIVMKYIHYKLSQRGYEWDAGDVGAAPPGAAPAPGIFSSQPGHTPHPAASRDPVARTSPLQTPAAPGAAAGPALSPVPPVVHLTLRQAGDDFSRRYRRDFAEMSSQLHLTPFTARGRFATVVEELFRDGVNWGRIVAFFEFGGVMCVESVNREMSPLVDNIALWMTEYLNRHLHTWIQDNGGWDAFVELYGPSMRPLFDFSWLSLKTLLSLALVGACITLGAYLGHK
row,Compound,IC50 [nM]
1,"(S)-2-((1H-pyrrolo[2,3-b]pyrid-5-yl)oxy)-N-(7-(((4-fluorotetrahydro-2H-pyran-4-yl)methyl)amino)-6-nitro-1H-benzo[d]imidazol-4-yl)sulfonyl)-4-(2-(2-(2-isopropylphenyl)pyrrolidin-1-yl)-7-azaspiro[3.5]non-7-yl)benzamide [compound 005]",< 10
2,"COc1ccc(CN2CCN(C3CC4(CCN(c5ccc(C(=O)NS(=O)(=O)c6cc([N+](=O)[O-])c(NC[C@H]7CC[C@](C)(O)CC7)c7[nH]cnc67)c(Oc6cnc7[nH]cc(F)c7c6)c5)CC4)C3)C(c3ccccc3C(C)C)C2)cn1 (some centres unmarked) [compound 049, 2-((3-fluoro-1H-pyrrolo[2,3-b]pyrid-5-yl)oxy)-N-((7-((((1r,4r)-4-hydroxy-4-methylcyclohexyl)methyl)amino)-6-nitro-1H-benzo[d]imidazol-4-yl)sulfonyl)-4-(2-(2-(2-isopropylphenyl)-4-((6-methoxypyrid-3-yl)methyl)piperazin-1-yl)-7-azaspiro[3.5]non-7-yl)benzamide]",< 10
3,"CC(C)c1ccccc1[C@@H]1CCCN1C1CC2(CCN(c3ccc(C(=O)NS(=O)(=O)c4cc([N+](=O)[O-])c(NCC5(F)CCOCC5)c5[nH]cnc45)c(N4CCOc5nc6[nH]ccc6cc54)c3)CC2)C1 [compound 087, (S)-2-(2,3-dihydropyrrolo[3′,2′:5,6]pyridino[2,3-b][1,4]oxazin-1 (6H)-yl)-N-((7-(((4-fluorotetrahydro-2H-pyran-4-yl)methyl)amino)-6-nitro-1H-benzo[d]imidazol-4-yl)sulfonyl)-4-(2-(2-(2-isopropylphenyl)pyrrolidin-1-yl)-7-azaspiro[3.5]non-7-yl)benzamide]",< 10
4,"COc1ccc(CN2CCN(C3CC4(CCN(c5cc(Oc6cnc7[nH]ccc7c6)c(C(=O)NS(=O)(=O)c6cc([N+](=O)[O-])c(NCC7(F)CCOCC7)c7[nH]cnc67)cc5F)CC4)C3)C(c3ccccc3C(C)C)C2)cc1 (centres unmarked) [compound 078, 2-((1H-pyrrolo[2,3-b]pyrid-5-yl)oxy)-5-fluoro-N-((7-(((4-fluorotetrahydro-2H-pyran-4-yl)methyl)amino)-6-nitro-1H-benzo[d]imidazol-4-yl)sulfonyl)-4-(2-(2-(2-isopropylphenyl)-4-(4-methoxybenzyl)piperazin-1-yl)-7-azaspiro[3.5]non-7-yl)benzamide]",< 10
5,"COc1ccc(CN2CCN(C3CC4(CCN(c5ccc(C(=O)NS(=O)(=O)c6cc([N+](=O)[O-])c(NCC7CCOCC7)c7[nH]cnc67)c(N6CCCOc7nc8[nH]ccc8cc76)c5)CC4)C3)C(c3ccccc3C(C)C)C2)cc1 (centres unmarked) [compound 092, 2-(3,4-dihydro-2H-pyrrolo[3′,2′:5,6]pyridino[2,3-b][1,4]oxazacyclohept-1 (7H)-yl)-4-(2-(2-(2-isopropylphenyl)-4-(4-methoxybenzyl)piperazin-1-yl)-7-azaspiro[3.5]non-7-yl)-N-((6-nitro-7-(((tetrahydro-2H-pyran-4-yl)methyl)amino)-1H benzo[d]imidazol-4-yl)sulfonyl)benzamide]",< 10
6,"CC(C)c1ccccc1[C@@H]1CCCN1C1CC2(CCN(c3cc(Oc4cnc5[nH]cc(F)c5c4)c(C(=O)NS(=O)(=O)c4cc([N+](=O)[O-])c(NC[C@H]5CC[C@](C)(O)CC5)c5[nH]cnc45)cn3)CC2)C1 [compound 037, 4-((3-fluoro-1H-pyrrolo[2,3-b]pyrid-5-yl)oxy)-N-((7-((((1r,4r)-4-hydroxy-4-methylcyclohexyl)methyl)amino)-6-nitro-1H-benzo[d]imidazol-4-yl)sulfonyl)-6-(2-((S)-2-(2-isopropylphenyl)pyrrolidin-1-yl)-7-azaspiro[3.5]non-7-yl) nicotinamide]",< 10

# The next lines start with the values.
row,IC50 [nM],Compound
1,< 10,"COc1ccc(CN2CCN(C3CC4(CCN(c5cc(Oc6cnc7[nH]ccc7c6)c(C(=O)NS(=O)(=O)c6cc([N+](=O)[O-])c(NCC7(F)CCOCC7)c7occc67)cc5F)CC4)C3)[C@H](c3ccccc3C(C)C)C2)cn1 [compound 129, (R)-2-((1H-pyrrolo[2,3-b]pyrid-5-yl)oxy)-5-fluoro-N-((7-(((4-fluorotetrahydro-2H-pyran-4-yl)methyl)amino)-6-nitrobenzofuran-4-yl)sulfonyl)-4-(2-(2-(2-isopropylphenyl)-4-((6-methoxypyrid-3-yl)methyl)piperazin-1-yl)-7-azaspiro[3.5]non-7-yl)benzamide]"
2,< 10,"COc1ccc(CN2CCN(C3CC4(CCN(c5cc(Oc6cnc7[nH]ccc7c6)c(C(=O)NS(=O)(=O)c6cc([N+](=O)[O-])c(NCC7(F)CCOCC7)c7ocnc67)cc5F)CC4)C3)[C@H](c3ccccc3C(C)C)C2)c(F)n1 [compound 131, (R)-2-((1H-pyrrolo[2,3-b]pyrid-5-yl)oxy)-5-fluoro-4-(2-(4-((2-fluoro-6-methoxypyrid-3-yl)methyl)-2-(2-isopropylphenyl)piperazin-1-yl)-7-azaspiro[3.5]non-7-yl)-N-((7-(((4-fluorotetrahydro-2H-pyran-4-yl)methyl)amino)-6-nitrobenzo[d]yl)sulfonyl)benzamide]"
3,< 10,"CC(C)c1ccccc1[C@@H]1CN(Cc2cnn(C(C)C)c2)CCN1C1CC2(CCN(c3cc(Oc4cnc5[nH]ccc5c4)c(C(=O)NS(=O)(=O)c4ccc(NC[C@H]5CC[C@](C)(O)CC5)c([N+](=O)[O-])c4)cc3F)CC2)C1 [compound 230, 2-((1H-pyrrolo[2,3-b]pyrid-5-yl)oxy)-5-fluoro-N-((4-((((1r, 4r)-4-hydroxy-4-methylcyclohexyl)methyl)amino)-3-nitrophenyl)sulfonyl)-4-(2-((R)-4-((1-isopropyl-1H-pyrazole-4-yl)methyl)-2-(2-isopropylphenyl)piperazin-1-yl)-7-azaspiro[3.5]non-7-yl)benzamide]"
4,< 10,"CC(C)c1ccccc1[C@@H]1CN(Cc2cnn(C)c2)CCN1C1CC2(CCN(c3cc(Oc4cnc5[nH]ccc5c4)c(C(=O)NS(=O)(=O)c4ccc(NC[C@H]5CC[C@](C)(O)CC5)c([N+](=O)[O-])c4)cc3F)CC2)C1 [compound 229, 2-((1H-pyrrolo[2,3-b]pyrid-5-yl)oxy)-5-fluoro-N-((4-((((1r, 4r)-4-hydroxy-4-methylcyclohexyl)methyl)amino)-3-nitrophenyl)sulfonyl)-4-(2-((R)-2-(2-isopropylphenyl)-4-((1-methyl-1H-pyrazole-4-yl)methyl)piperazin-1-yl)-7-azaspiro[3.5]non-7-yl)benzamide]"
5,< 10,"COc1ccc(CN2CCN(C3CC4(CCN(c5cc(Oc6cnc7[nH]ccc7c6)c(C(=O)NS(=O)(=O)c6cc([N+](=O)[O-])c(NC[C@H]7CC[C@](C)(O)CC7)c7occc67)cc5F)CC4)C3)[C@H](c3ccccc3C(C)C)C2)cc1 [compound 115, 2-((1H-pyrrolo[2,3-b]pyrid-5-yl)oxy)-5-fluoro-N-((7-((((1r, 4r)-4-hydroxy-4-methylcyclohexyl)methyl)amino)-6-nitrobenzofuran-4-yl)sulfonyl)-4-(2-((R)-2-(2-isopropylphenyl)-4-(4-methoxybenzyl)piperazin-1-yl)-7-azaspiro[3.5]non-7-yl)benzamide]"
